Patent US10918645B2 (LIFEARC, priority 2016, dated 2021)

Tests used:
[1] = tested on: transgenic Drosophila expressing LRRK2-G2019S in dopamine (DA) neurons; test: Drosophila model climbing assay (negative geotaxis); type: in vivo; conditions: significance compared to DMSO negative control
Description: (§1) Drosophila model was used to evaluate Examples in vivo. The GAL4/UAS system developed by Andrea Brand and Norbert Perrimon in 1993 [45] was used to generate transgenic Drosophila expressing LRRK2-G2019S in dopamine (DA) neurons. The system has two parts: the GAL4 gene, encoding the yeast transcription activator protein GAL4, and the UAS (Upstream Activation Sequence), an enhancer to which GAL4 specifically binds to activate gene transcription. This system takes advantage of the yeast GAL4 transcription factor, which binds specifically to the UAS.
To express LRRK2-G2019S in DA neurons, the UAS-Wild Type-LRRK2 and UAS-G2019S-LRRK2 transgenes were combined with the dopa decarboxylase (ddc)-GAL4 driver. The 10 μM GW5074 was used for the positive control. The negative control group was DMSO control (all compounds were dissolved in DMSO with 1:1000 dillution). The Drosophila were maintained at 25° C. on a 12 hour light-12 hour dark cycle. GW5074 was used as positive control.
The negative geotaxis assay was used to analyse the locomotors ability of the Drosophila. Twenty Drosophila from each vial and 4 vials for each group were performed the climbing assay weekly.
The tested Drosophila were transferred into a vertical plastic tube (15 cm tall, 1.5 cm in diameter). After 30 min of rest at room temperature, the Drosophila were gently tapped to the bottom of the tube, the numbers of Drosophila that could climb to or above the test line within 10 seconds were counted and the percent were calculated.
The climbing abilities were analysed based on three separate experiments for each vial and the data were analysed by GraphPad PRISM® 6.0 software.

[2] = tested on: transgenic Drosophila expressing LRRK2-G2019S in dopamine (DA) neurons; test: Drosophila model survival rate; type: in vivo; conditions: significance compared to DMSO negative control
Description: as §1
To express LRRK2-G2019S in DA neurons, the UAS-Wild Type-LRRK2 and UAS-G2019S-LRRK2 transgenes were combined with the dopa decarboxylase (ddc)-GAL4 driver. The 10 μM GW5074 was used for the positive control. […]
Twenty newly enclosed female Drosophila were collected and placed in a food vial. The Drosophila were moved to fresh food vials every other day at which time deaths were scored.
Based on Drosophila′ survival curve, the 50% survival time parameter indicates the time at which half of the Drosophila remained alive and was used to compare the survival ratio between the different groups. The mean 50% survival times and the standard errors were calculated based on 4 separate experiments for each group. The data were analysed by GraphPad PRISM® 6.0 software.

[3] = biological target: LRRK2 (phospho S935) in Drosophila brain lysates (Homo sapiens (Human), UniProt Q5S007, G2019S); test: Drosophila model kinase assays at week 6; type: in vivo; conditions: ratio of phosphate LRRK2 protein to Flag protein, significance compared to DMSO negative control
Experimental: The 10 μM GW5074 was used for the positive control. The negative control group was DMSO control (all compounds were dissolved in DMSO with 1:1000 dillution). The Drosophila were maintained at 25° C. on a 12 hour light-12 hour dark cycle. GW5074 was used as positive control [47].
The adult Drosophila heads were homogenized on ice, and the brain lysates were performed kinase reaction in kinase reaction buffer with ATP and DTT.
Then the lysates were electrophoresed through 12% SDS-PAGE gels and transferred to PVDF membranes (Millipore). The membranes were blocked in TBST with 5% skimmed milk for 1 hour at room temperature and then incubated in anti-LRRK2 pSer935 antibody (Abcam, ab133450) and anti-Flag antibody overnight at 4° C.
The proteins were detected with HRP-conjugated secondary antibodies and ECL detection reagents. The optical density of immunoblotting was analysed by Image J software and the ratio of phosphate LRRK2 protein compare to Flag protein were calculated and the data were analysed by GraphPad PRISM® 6.0 software.

JAK2 = JAK2 (Homo sapiens (Human), UniProt O60674); test: LANCE Kinase Assay (JAK2_IC50 selectivity assay); type: biochemical
Description: In LANCE® Kinase Assay (JAK2_IC50 selectivity assay): JAK2 (Invitrogen, Cat. No PV4288), ATP (Sigma, Cat. No. A7699-1G), DMSO (Sigma, Cat. No. D2650), DTT (Sigma, Cat. No. 43815), LANCE Ultra ULight™-JAK-1 peptide (Perkin Elmer, Cat. No. TRF0121), LANCE Eu-W1024 Anti-phosphotyrosine (PT66) (Perkin Elmer, Cat. No. AD0069), LANCE™ Detection Buffer (Perkin Elmer, Cat. No. CR97-100), Tofacitinib (PharmaBlock Sciences(Nanjing), Inc, Cat. No. PBN2011586-01); Equipments: Envision (Perkin Elmer), Bravo (Agilent); Consumables: 384 well Intermediate plate (Greiner, Cat. No. 781280), 384 well assay plate (Perkin Elmer, Cat. No. 6007299),
The assay involves two steps, the enzymatic step and the detection step with HTRF reagents. Step 1: During the enzymatic step the substrate-biotin is incubated with the kinase of interest. ATP is added to start the reaction. Step 2: The detection reagent catches the phosphorylated substrate and the resulting TR-FRET is proportional to the phosphorylation level.
Compound Preparation: Dissolve the test compounds into 30 mM DMSO solution and put them in nitrogen hood at room temperature for long term storage; Dilute the 30 mM compound in DMSO with 3-fold factor, total 11 concentrations; Aspirate 1 μl compound and then dilute them in 25 folds with kinase buffer. Mix well and balance 30 minutes at room temperature.
Kinase Reaction: Transfer 2.5 μl compounds in kinase buffer (4×) into assay plate by Agilent Bravo. Spin the plate; Transfer 5 μl enzyme mixture into the assay plate by using Eppendorf electronic multi-channel pipette. Spin the plate; Incubate the assay plate for 20 minutes at room temperature (23° C.); Add 2.5 μl kinase buffer with ATP into the assay plate by using Multidrop. Spin and seal the plate; Incubate the assay plate for 90 minutes at room temperature (23° C.).
Stop Reaction: Transfer 10 μl detection reagent (2 nM LANCE Eu-W1024 Anti-phosphotyrosine) into the assay plate by using Eppendorf electronic multi-channel pipette. Spin and seal the plate; Incubate the assay plate at room temperature (23° C.) for 60 minutes.
Detection and Read: The excitation wavelength is 340 nm, the primary emission wavelength is 615 nm and the secondary emission wavelength is 665 nm (for Cryptate and Ulight, respectively). Read the plate with EnVision to get the readout of both wavelengths; Calculate the ratio of 665 nm/615 nm.
(§2) IC50 estimates were obtained using the software XLfit (IDBS Inc.).

LRRK2 G2019S = LRRK2 G2019S (Homo sapiens (Human), UniProt Q5S007, G2019S); test: Adapta Kinase Assay (LRRK2_IC50 assay); type: biochemical; conditions: inhibition of LRRK2 G2019S
Experimental: In Adapta™ Kinase Assay (LRRK2_IC50 assay): the Kinase Reaction Buffer contained 5× Kinase Buffer S (Life Technologies, PV5213) and 2 mM DTT (Life Technologies, P2325).
The Adapta® universal kinase assay is a homogenous, fluorescent based immunoassay for the detection of ADP. In contrast to ATP depletion assays, the Adapta® assay is extremely sensitive to ADP formation such that a majority of the signal change occurs in the first 10-20% conversion of ATP to ADP. This makes the Adapta® universal kinase assay ideally suited for use with low activity kinases.
Prepare a 1× solution of kinase reaction buffer from the 5× Kinase Buffer S stock (listed above) by adding 2 ml of 5× stock to 8 ml of H2O to make 10 ml of 1× kinase reaction buffer. To this, add 20 μl of 1 M DTT.
Kinase reactions are performed in a 10 μl volume in low-volume 384-well plates. […] Other non—treated assay plates, while not tested, may also be suitable. The concentration of substrate in the assay is 100 μM, and the 1× kinase reaction buffer consists of 50 mM Tris-HCl pH8.5, 10 mM MgCl2, 1 mM EGTA, 0.01% Brij-35, and 2 mM DTT, plus any additional additives that may be required for a specific kinase. […] The plate is allowed to equilibrate at room temperature for at least 30 minutes before being read on a plate reader configured for Adapta™ TR-FRET.
The data presented in this document were generated using a BMG LABTECH PHERAstar plate reader using the appropriate filters and instrument settings for Adapta™. The Test Compounds are screened in 1% DMSO (final) in the well. For 8 point titrations, 5-fold serial dilutions are conducted from the starting concentration.
as §2

JAK2, sequence (O60674 whole entry): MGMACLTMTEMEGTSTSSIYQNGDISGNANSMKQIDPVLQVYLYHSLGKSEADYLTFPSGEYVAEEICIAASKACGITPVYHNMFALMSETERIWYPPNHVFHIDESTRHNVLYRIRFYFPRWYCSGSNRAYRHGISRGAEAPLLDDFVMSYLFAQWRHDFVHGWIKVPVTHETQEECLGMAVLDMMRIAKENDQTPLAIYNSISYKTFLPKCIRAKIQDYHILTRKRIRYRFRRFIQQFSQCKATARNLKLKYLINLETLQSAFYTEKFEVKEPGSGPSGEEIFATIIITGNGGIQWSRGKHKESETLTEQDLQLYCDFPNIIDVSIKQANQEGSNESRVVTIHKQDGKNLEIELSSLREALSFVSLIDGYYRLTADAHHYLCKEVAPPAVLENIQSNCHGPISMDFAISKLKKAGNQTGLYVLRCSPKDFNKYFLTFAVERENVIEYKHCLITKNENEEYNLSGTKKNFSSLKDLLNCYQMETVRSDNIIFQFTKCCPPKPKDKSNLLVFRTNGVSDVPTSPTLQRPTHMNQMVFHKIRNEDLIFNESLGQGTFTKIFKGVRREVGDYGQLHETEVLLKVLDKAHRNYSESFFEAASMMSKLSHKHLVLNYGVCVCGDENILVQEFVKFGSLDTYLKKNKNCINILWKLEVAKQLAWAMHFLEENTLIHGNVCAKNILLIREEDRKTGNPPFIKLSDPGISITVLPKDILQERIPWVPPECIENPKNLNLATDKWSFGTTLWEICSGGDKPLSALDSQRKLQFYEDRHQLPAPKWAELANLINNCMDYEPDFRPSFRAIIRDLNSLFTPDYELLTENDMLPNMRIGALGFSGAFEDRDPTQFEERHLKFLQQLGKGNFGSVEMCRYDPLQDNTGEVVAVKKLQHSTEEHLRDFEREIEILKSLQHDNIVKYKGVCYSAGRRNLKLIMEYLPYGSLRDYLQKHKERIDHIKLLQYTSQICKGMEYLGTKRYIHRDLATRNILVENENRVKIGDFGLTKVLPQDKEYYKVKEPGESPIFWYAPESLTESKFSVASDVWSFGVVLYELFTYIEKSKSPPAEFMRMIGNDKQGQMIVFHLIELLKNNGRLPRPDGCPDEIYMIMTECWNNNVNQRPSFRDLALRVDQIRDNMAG
LRRK2 (phospho S935) in Drosophila brain lysates, sequence (Q5S007 whole entry G2019S): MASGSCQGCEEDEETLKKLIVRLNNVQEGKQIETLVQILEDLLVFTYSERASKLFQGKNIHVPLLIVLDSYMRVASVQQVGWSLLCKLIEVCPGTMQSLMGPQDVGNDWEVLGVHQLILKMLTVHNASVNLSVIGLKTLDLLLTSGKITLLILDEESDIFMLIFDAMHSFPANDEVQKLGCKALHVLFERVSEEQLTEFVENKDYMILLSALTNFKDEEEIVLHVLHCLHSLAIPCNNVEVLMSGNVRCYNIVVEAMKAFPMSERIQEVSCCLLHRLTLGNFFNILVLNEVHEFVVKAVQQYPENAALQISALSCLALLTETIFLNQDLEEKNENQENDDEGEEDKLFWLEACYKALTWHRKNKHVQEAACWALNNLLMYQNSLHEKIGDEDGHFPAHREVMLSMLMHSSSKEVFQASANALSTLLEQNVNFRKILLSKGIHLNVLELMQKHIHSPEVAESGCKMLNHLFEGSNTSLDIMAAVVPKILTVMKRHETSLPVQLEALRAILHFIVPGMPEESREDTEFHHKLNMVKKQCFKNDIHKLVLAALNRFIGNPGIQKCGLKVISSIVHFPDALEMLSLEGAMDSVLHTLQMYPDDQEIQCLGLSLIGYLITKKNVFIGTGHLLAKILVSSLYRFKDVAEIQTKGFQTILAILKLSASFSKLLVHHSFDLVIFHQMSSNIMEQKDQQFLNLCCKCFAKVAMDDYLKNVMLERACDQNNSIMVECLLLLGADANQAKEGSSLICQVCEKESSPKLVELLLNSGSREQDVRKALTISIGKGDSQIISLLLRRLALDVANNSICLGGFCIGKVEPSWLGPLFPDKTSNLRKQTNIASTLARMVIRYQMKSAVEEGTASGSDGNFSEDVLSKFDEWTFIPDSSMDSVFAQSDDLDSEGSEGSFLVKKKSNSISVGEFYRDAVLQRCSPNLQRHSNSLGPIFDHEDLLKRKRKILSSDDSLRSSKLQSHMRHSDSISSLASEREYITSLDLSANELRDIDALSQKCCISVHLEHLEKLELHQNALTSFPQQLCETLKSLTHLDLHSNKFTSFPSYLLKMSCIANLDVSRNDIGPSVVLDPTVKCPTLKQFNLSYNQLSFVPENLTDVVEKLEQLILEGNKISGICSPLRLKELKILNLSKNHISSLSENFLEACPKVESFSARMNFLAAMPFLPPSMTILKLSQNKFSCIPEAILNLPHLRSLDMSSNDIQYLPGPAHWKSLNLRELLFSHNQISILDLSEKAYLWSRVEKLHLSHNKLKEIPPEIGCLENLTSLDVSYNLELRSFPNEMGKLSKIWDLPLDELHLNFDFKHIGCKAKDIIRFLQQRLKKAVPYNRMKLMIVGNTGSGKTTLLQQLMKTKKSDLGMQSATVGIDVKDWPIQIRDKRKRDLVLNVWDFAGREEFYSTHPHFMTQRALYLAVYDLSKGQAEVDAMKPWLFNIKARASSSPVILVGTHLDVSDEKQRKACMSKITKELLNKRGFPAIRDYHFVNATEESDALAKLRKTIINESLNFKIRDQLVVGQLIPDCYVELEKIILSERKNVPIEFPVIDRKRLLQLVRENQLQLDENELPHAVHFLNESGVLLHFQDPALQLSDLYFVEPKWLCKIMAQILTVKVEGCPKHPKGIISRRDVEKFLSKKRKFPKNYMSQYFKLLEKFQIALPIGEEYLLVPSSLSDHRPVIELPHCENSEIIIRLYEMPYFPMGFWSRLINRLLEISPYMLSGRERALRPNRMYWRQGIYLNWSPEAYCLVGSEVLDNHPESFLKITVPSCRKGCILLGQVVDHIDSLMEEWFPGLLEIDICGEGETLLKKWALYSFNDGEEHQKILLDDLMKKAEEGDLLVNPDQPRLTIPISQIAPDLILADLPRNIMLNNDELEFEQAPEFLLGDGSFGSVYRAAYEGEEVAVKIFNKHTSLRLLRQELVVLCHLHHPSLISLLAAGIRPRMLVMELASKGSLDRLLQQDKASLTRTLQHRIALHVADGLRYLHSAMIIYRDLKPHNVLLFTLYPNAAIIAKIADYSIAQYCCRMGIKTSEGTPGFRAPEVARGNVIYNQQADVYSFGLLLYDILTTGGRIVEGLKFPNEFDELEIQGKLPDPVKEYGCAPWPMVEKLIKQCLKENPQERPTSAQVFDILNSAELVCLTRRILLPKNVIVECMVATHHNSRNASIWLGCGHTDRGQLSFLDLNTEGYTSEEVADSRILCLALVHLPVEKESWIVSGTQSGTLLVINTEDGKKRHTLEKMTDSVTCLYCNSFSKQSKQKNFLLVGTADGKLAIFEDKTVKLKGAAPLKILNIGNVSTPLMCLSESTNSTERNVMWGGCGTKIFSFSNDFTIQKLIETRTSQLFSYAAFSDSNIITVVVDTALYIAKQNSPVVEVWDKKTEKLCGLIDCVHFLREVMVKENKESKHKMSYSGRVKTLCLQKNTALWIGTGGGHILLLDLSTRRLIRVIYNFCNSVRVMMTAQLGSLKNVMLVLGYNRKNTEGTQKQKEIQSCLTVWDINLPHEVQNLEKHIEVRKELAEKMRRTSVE

| Compound | Climbing Assay 3 weeks ([1]; 3 weeks) | Climbing Assay 4 weeks ([1]; 4 weeks) | Climbing Assay 5 weeks ([1]; 5 weeks) | Climbing Assay 6 weeks ([1]; 6 weeks) | Survival Rate [2] | Kinase Assays [3] | IC50 (JAK2) [nM] | IC50 (LRRK2 G2019S) [nM] |
| --- | --- | --- | --- | --- | --- | --- | --- | --- |
| c1ccc2c(c1)CN(C1CCOCC1)c1nccc3[nH]nc-2c13 [Example 58] | * (P < 0.05, compared to DMSO negative control) | * (P < 0.05, compared to DMSO negative control) | ** (P < 0.01, compared to DMSO negative control) | ** (P < 0.01, compared to DMSO negative control) | ** (P < 0.01, compared to DMSO negative control) | * (P < 0.05, compared to DMSO negative control) | – | – |
| 4-ethyl-5,11-dihydro-4H-3,4,10,11-tetraazadibenzo[cd,h]azulene [Example 46] | – | – | – | – | – | – | 1900 | 49 |
